Measurements taken from ChEMBL document CHEMBL4002544, “Design, synthesis and cytotoxic activity of certain novel chalcone analogous compounds” (Eur J Med Chem, 2017).

Experiments:
[1] = system: HepG2; experiment: Antiproliferative activity against human HepG2 cells after 48 hrs by SRB assay; type: functional, cell-based; settings: HepG2, 48 h
[2] = system: MCF7; experiment: Antiproliferative activity against human MCF7 cells after 48 hrs by SRB assay; type: functional, cell-based; settings: MCF7, 48 h
[3] = system: MCF7; experiment: Potency index, ratio of colchicine IC50 to compound IC50 for human MCF7 cells; type: functional
[4] = target: Tubulin beta-5 chain (Homo sapiens) (UniProt P07437); experiment: Inhibition of tubulin beta polymerization in human MCF7 cells after 18 to 24 hrs by spectrophotometric method relative to control; type: cell-based; set-up: concentration or dose not given beside the values; settings: concentration not given here
[5] = target: Tubulin beta-5 chain (Homo sapiens) (UniProt P07437); experiment: Inhibition of tubulin beta polymerization in human HepG2 cells after 18 to 24 hrs by spectrophotometric method relative to control; type: cell-based; set-up: concentration or dose not given beside the values; settings: concentration not given here
[6] = Cytotoxicity against mouse AML-12 cells by MTT assay; type: cell-based; settings: AML12
[7] = Cytotoxicity against human Hs 371.T cells by MTT assay; type: cell-based
[8] = Selectivity ratio of IC50 for mouse AML-12 cells to IC50 for human HepG2 cells
[9] = Selectivity ratio of IC50 for human Hs 371.T cells to IC50 for human MCF7 cells

Tubulin beta-5 chain (Homo sapiens), sequence (P07437 whole entry): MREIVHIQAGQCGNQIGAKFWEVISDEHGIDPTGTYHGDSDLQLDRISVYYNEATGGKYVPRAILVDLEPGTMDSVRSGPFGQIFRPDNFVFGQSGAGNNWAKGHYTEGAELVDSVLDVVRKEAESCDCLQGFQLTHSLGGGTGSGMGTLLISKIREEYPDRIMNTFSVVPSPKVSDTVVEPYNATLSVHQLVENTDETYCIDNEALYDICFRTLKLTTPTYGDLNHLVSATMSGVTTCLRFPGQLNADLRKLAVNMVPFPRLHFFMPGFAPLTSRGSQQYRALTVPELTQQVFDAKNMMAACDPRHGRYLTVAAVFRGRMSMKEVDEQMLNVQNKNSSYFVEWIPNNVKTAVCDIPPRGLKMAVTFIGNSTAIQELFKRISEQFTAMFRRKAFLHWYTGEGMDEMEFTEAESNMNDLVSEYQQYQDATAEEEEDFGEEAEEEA

Row | SMILES | IC50 [1] [nM] | IC50 [2] [nM] | Ratio IC50 [3] | inhibition [4] [%] | inhibition [5] [%] | IC50 [6] [nM] | IC50 [7] [nM] | Ratio IC50 [8] | Ratio IC50 [9]
1 | COc1ccc(C2=NN(c3ccccc3)C(c3ccc(F)cc3)C2O)cc1 (stereo unspecified) | 13 | 16 | – | – | – | – | – | – | –
2 | COc1cccc(C(=O)C2OC2c2ccc(F)cc2)c1 (stereo unspecified) | 17 | 14 | 10 | 88.4 | – | – | – | – | –
3 | COc1cccc(C2=CC(c3ccc(Cl)cc3)NC(=S)N2)c1 (stereo unspecified) | 54 | 150 | 2 | – | 90.6 | – | – | – | –
4 | COc1cccc(C2=CC(c3ccc(Br)cc3)NC(=S)N2)c1 (stereo unspecified) | 34 | 135 | 2 | – | – | – | – | – | –
5 | COc1cccc(C2=NNC(c3ccc(Cl)cc3)C2O)c1 (stereo unspecified) | 35.3 | 49 | – | – | – | – | – | – | –
6 | COc1cc2c(c(OC)c1OC)-c1ccc(OC)c(=O)cc1[C@@H](NC(C)=O)CC2 [COLCHICINE] | 124 | 150 | – | – | – | 138 | 443 | – | –
7 | COc1ccc(C2C=C(c3cc(OC)c(OC)c(OC)c3)NC(=S)N2)cc1 (stereo unspecified) | 90 | 103 | 2 | – | – | – | – | – | –
8 | COc1ccc(C2=NN(c3ccccc3)C(c3ccc(OC)cc3)C2O)cc1 (stereo unspecified) | 10.2 | 19 | – | – | – | – | – | – | –
9 | COc1cc(C2=CC(c3ccc(F)cc3)NC(=S)N2)cc(OC)c1OC (stereo unspecified) | 61.9 | 125 | 2 | – | – | – | – | – | –
10 | COc1cc(C2=CC(c3ccc(Br)cc3)NC(=S)N2)cc(OC)c1OC (stereo unspecified) | 9.5 | 77 | 2 | – | 92.8 | 59.4 | – | 2.5 - 9 | –
11 | COc1cccc(C2=NN(c3ccccc3)C(c3ccc(Cl)cc3)C2O)c1 (stereo unspecified) | 11 | 9.7 | – | 92.3 | 93 | 74.1 | 86.7 | 2.5 - 9 | 2.5 - 9
12 | COc1cccc(C(=O)C2SC2c2ccc(Br)cc2)c1 (stereo unspecified) | 11 | 23 | – | – | 85.7 | – | – | – | –
13 | COc1cccc(C(=O)C2SC2c2ccc(Cl)cc2)c1 (stereo unspecified) | 13 | 15 | – | 89.3 | 88.6 | – | – | – | –
14 | COc1cccc(C2=NN(c3ccccc3)C(c3ccc(Br)cc3)C2O)c1 (stereo unspecified) | 9.9 | 11 | – | 87.8 | 84.6 | 26.9 | 474 | 2.5 - 9 | 2.5 - 9
15 | COc1ccc(C2=CC(c3ccc(Br)cc3)NC(=S)N2)cc1 (stereo unspecified) | 30 | 126 | 2 | – | 91.4 | – | – | – | –
16 | COc1cc(C2=CC(c3ccc(Cl)cc3)NC(=S)N2)cc(OC)c1OC (stereo unspecified) | 11 | 120 | 2 | – | 92.4 | 88.5 | – | 2.5 - 9 | –
17 | COc1cccc(C(=O)C(O)C(Nc2ccc(F)c(Cl)c2)c2ccc(Br)cc2)c1 (stereo unspecified) | 37.2 | 9.9 | – | 92.2 | 88.5 | – | 90.2 | – | 2.5 - 9
18 | COc1ccc(C(=O)C2OC2c2ccc(Cl)cc2)cc1 (stereo unspecified) | 15 | 26 | – | – | – | – | – | – | –
19 | COc1cccc(C2=NNC(c3ccc(Br)cc3)C2O)c1 (stereo unspecified) | 43 | 49 | – | – | – | – | – | – | –
